# Results as given in patent US9295669B2, “Combination therapy for proliferative disorders” (Hoffman La-Roche Inc., priority 2010, dated 2016).
# Like-named read-outs stand apart in the source and are kept apart here.
# Legend:
# [1] = test system: human LOX-IMVI melanoma cell xenografts; assay: Assessment of survival (increased life span) in mice with human LOX-IMVI melanoma xenografts; assay type: in vivo; details: monotherapy; for 50% Treatment Days (median survival day of treated group): 50% vehicle days 14; for % ILS (increased life span): versus vehicle group
# Procedure: (§1) Mice were implanted with human LOX-IMVI melanoma cell xenografts. The mice, cell line used, and implantation are described below.
# (§2) Female athymic Crl:NU-Foxn1nu mice were used for efficacy testing (Charles River, Wilmington, Mass., USA). Mice were 10-12 weeks of age and weighed 23-25 grams. The health of the mice was assessed daily by observation and analysis of blood samples taken from sentinel animals on shared shelf racks. All animals were allowed to acclimate and recover from shipping-related stress for one week. Autoclaved water and irradiated food (5058-ms Pico Lab mouse chow, Purina Mills, Richmond, Ind., USA) were provided ad libitum, and the animals were kept in a 12 hour light and dark cycle. Cages, bedding and water bottles were autoclaved before use and changed weekly. All animal experiments were conducted in accordance with the Guide for the Care and Use of Laboratory Animals, local regulations, and protocols approved by the Roche Animal Care and Use Committee in our AAALAC accredited facility.
# (§3) LOX-IMVI cells (aka LOX, National Cancer Institute—Bethesda, Md.) were grown in RPMI-1640 medium supplemented with 10% Fetal Bovine Serum (FBS) and 1% of […] L-glutamine, scaled up, harvested, and prepared so that each mouse received 2×10^6 cells/0.2 ml calcium and magnesium free phosphate-buffered saline (PBS). Cells were implanted in the subcutaneous right flank of each mouse.
# (§4) Mice implanted with human xenografts were randomized into eight groups of 10 mice each according to tumor volume so that all groups had similar starting mean tumor volumes. The approximate starting mean tumor volume for this study was 130 mm^3.
# (§5) Treatment began on day 5 post-cell implant and ended at day 18 post-cell implant. Four groups of mice developed in example 3 were used. Each group was subjected to a different therapy as follows: • (1) mice receiving Compound I vehicle bid po and peginterferon alfa-2a vehicle 1×/wk sc; • (2) mice receiving Compound I at 75 mg/kg bid bid po; • (3) mice receiving peginterferon alfa-2a at 900 μg 1×/wk sc; and • (4) mice receiving Compound I at 75 mg/kg bid bid po and peginterferon alfa-2a at 900 μg 1×/wk sc.
# (§6) The Compound I suspension and its corresponding vehicle were dosed using a sterile 1 cc syringe and 18-gauge gavage needle (0.2 ml/animal) twice daily. The peginterferon alfa-2a solution and its corresponding vehicle were dosed using a sterile 1 cc syringe and 26-gauge needle (0.2 ml/animal) once weekly on days 5 and 12 post-cell implant for a total of two injections.
# For survival assessment, the percent of increased life space (ILS) was calculated as: 100×[(median survival day of treated group−median survival day of control group)/median survival day of control group]. Median survival was determined utilizing Kaplan Meier survival analysis. Survival in treated groups was statistically compared with the vehicle group and survival comparisons were done between groups using the log-rank test (Graph Pad Prism, La Jolla, Calif., USA). Differences between groups were considered significant when the probability value (p) was ≦0.05.
# Treatment began on day 6 post-cell implant and ended at day 19 post-cell implant. Four groups of mice developed in example 3 were used. The treatment groups were as follows: • (1) mice receiving Compound I vehicle bid po and peginterferon alfa-2a vehicle 1×/wk sc; • (2) mice receiving Compound I at 25 mg/kg bid po; • (3) mice receiving peginterferon alfa-2a at 450 μg 1×/wk sc; and • (4) mice receiving Compound I at 25 mg/kg bid and peginterferon alfa-2a at 450 μg 1×/wk.
# as §6, with “6” for “5”, “13” for “12”
# [2] = assay type: in vivo; details: monotherapy, 10 mice
# Procedure: as §2, with “Autoclaved water and irradiated food (5058-ms Pico Lab mouse chow, Purina Mills, Richmond, Ind., USA) were provided ad libitum, and the animals were kept in a 12 hour light and dark cycle.” left out
# Treatment began on day 5 post-cell implant and ended at day 18 post-cell implant.
# The peginterferon alfa-2a solution and its corresponding vehicle were dosed using a sterile 1 cc syringe and 26-gauge needle (0.2 ml/animal) once weekly on days 5 and 12 post-cell implant for a total of two injections.
# Weight loss was graphically represented as percent change in mean group body weight, using the formula: ((W−W0)/W0)×100, where ‘W’ represents mean body weight of the treated group at a particular day, and ‘W0’ represents mean body weight of the same treated group at initiation of treatment.
# Treatment began on day 6 post-cell implant and ended at day 19 post-cell implant.
# The peginterferon alfa-2a solution and its corresponding vehicle were dosed using a sterile 1 cc syringe and 26-gauge needle (0.2 ml/animal) once weekly on days 6 and 13 post-cell implant for a total of two injections.
# [3] = test system: human LOX-IMVI melanoma cell xenografts; assay: Tumor growth inhibition in mice with human LOX-IMVI melanoma xenografts; assay type: in vivo; details: monotherapy; for % Inhibition end of study Day: 19 / % T/C end of study Day: 19 / % Tumor Growth Inhibition / Average % Regression per Group / Mean Tumor Volume End Study DAY: 19 / % Inhibition end of study Day: 18 / % T/C end of study Day: 18 / Mean Tumor Volume End Study DAY: 18: 10 mice; for Complete Regression / Partial Regression: animals out of 10 per group
# Procedure: as §1, §2, §3, §4, §5, §6
# Tumor measurements were taken once or twice per week. All animals were individually followed throughout the experiment.
# Efficacy data was graphically represented as the mean tumor volume±standard error of the mean (SEM). In addition, tumor volumes of treated groups were presented as percentages of tumor volumes of the control groups (% T/C), using the formula: 100×((T−T0)/(C−C0)), where T represented mean tumor volume of a treated group on a specific day during the experiment, T0 represented mean tumor volume of the […] on the first day of treatment; C represented mean tumor volume of a control group on the specific day during the experiment, and Co represented mean tumor volume of the […] on the first day of treatment.
# Tumor volume (in cubic millimeters) was calculated using the ellipsoid formula: (D×(d^2))/2, where “D” represents the large diameter of the tumor and “d” represents the small diameter.
# Also, tumor regression and/or percent change in tumor volume was calculated using the formula: ((T−T0)/T0)×100, where ‘T’ represents mean tumor volume of the treated group at a particular day, and ‘T0’ represents mean tumor volume of the same treated group at initiation of treatment.
# Statistical analysis was determined by the rank sum test and One Way Anova and a post-hoc Bonferroni t-test (SigmaStat, version 2.0, Jandel Scientific, San Francisco, Calif., USA). […]
# [4] = peginterferon alfa-2a 450 μg 1×/wk sc (days 6 and 13)
# [5] = peginterferon alfa-2a 900 μg 1×/wk sc (days 5 and 12)
# [6] = Compound I 25 mg/kg bid po, days 6-19 post-cell implant
# [7] = Compound I 75 mg/kg bid po, days 5-18 post-cell implant
compound,measurement,setting,value
Peginterferon alfa-2a,50% Treatment Days (median survival day of treated group),[1]; [4],30 days
same,% ILS (increased life span),[1]; [4],114%
same,50% Treatment Days (median survival day of treated group),[1]; [5],34 days
same,% ILS (increased life span),[1]; [5],143%
same,# animals ≧ 20% BWL,[2]; [4],0
same,% Change in Body Weight at end of Study Day 19,[2]; [4],8.1%
same,Max % Weight Gain,[2]; [4],8.1%
same,Max % Weight Loss,[2]; [4],3.7%
same,Mortality,[2]; [4],0
same,# animals ≧ 20% BWL,[2]; [5],0
same,% Change in Body Weight at end of Study Day 18,[2]; [5],2.7%
same,Max % Weight Gain,[2]; [5],2.7%
same,Max % Weight Loss,[2]; [5],0.7%
same,Mortality,[2]; [5],0
same,% Inhibition end of study Day: 19,[3]; [4],regression
same,% T/C end of study Day: 19,[3]; [4],0%
same,% Tumor Growth Inhibition,[3]; [4],>100%
same,Average % Regression per Group,[3]; [4],6%
same,Mean Tumor Volume End Study DAY: 19,[3]; [4],122.93 mm^3
same,Complete Regression,[3]; [4],1
same,Partial Regression,[3]; [4],6
same,% Inhibition end of study Day: 18,[3]; [5],98%
same,% T/C end of study Day: 18,[3]; [5],2%
same,% Tumor Growth Inhibition,[3]; [5],98%
same,Mean Tumor Volume End Study DAY: 18,[3]; [5],193.98 mm^3
same,Complete Regression,[3]; [5],3
same,Partial Regression,[3]; [5],2
"CCCS(=O)(=O)Nc1ccc(F)c(C(=O)c2c[nH]c3ncc(-c4ccc(Cl)cc4)cc23)c1F [Compound I, Propane-1-sulfonic acid{3-[5-(4-chloro-phenyl)-1H-pyrrolo[2,3-b]pyridine-3-carbonyl]-2,4-difluoro-phenyl}-amide]",50% Treatment Days (median survival day of treated group),[1]; [6],59 days
same,% ILS (increased life span),[1]; [6],321%
same,50% Treatment Days (median survival day of treated group),[1]; [7],504 days
same,% ILS (increased life span),[1]; [7],3500%
same,# animals ≧ 20% BWL,[2]; [6],0
same,% Change in Body Weight at end of Study Day 19,[2]; [6],1.3%
same,Max % Weight Gain,[2]; [6],1.3%
same,Max % Weight Loss,[2]; [6],−1.0%
same,Mortality,[2]; [6],0
same,# animals ≧ 20% BWL,[2]; [7],0
same,% Change in Body Weight at end of Study Day 18,[2]; [7],−7.0%
same,Max % Weight Gain,[2]; [7],−3.6%
same,Max % Weight Loss,[2]; [7],−7.0%
same,Mortality,[2]; [7],0
same,% Inhibition end of study Day: 19,[3]; [6],regression
same,% T/C end of study Day: 19,[3]; [6],−5%
same,Average % Regression per Group,[3]; [6],100%
same,Mean Tumor Volume End Study DAY: 19,[3]; [6],0.00 mm^3
same,Complete Regression,[3]; [6],10
same,Partial Regression,[3]; [6],0
same,% Inhibition end of study Day: 18,[3]; [7],regression
same,% T/C end of study Day: 18,[3]; [7],−4%
same,Average % Regression per Group,[3]; [7],100%
same,Mean Tumor Volume End Study DAY: 18,[3]; [7],0.00 mm^3
same,Complete Regression,[3]; [7],10
same,Partial Regression,[3]; [7],0
